Some test systems named below: PC-3 prostate; IGROV1 ovarian; RXF 393 renal; HCT-116 colon; SF-295 CNS; NCI-H23 lung; OVCAR-3 ovarian; KM12 colon; K-562 leukemia; HCC-2998 colon.
Common to all, as to assay: DTP human tumour cell line panel, 48 h

The structures appear in SMILES notation.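 In this assay, cells in 96-well plates receive the compound at five concentrations for 48 hours. Endpoints are linearly interpolated between the surrounding concentrations. At the GI50, growth is halved. TGI denotes the concentration required for complete inhibition of growth.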 A value given as a limit tells only on which side of the number the result lay.

With `N#Cc1nc2cc(Cl)c(Cl)cc2nc1-c1ccc(Cl)cc1`, the GI50 – broadly, the concentration at which growth is held to half of that of the control – was 34800 nM in the assay on PC-3 prostate; 73200 nM with IGROV1 ovarian; 11200 nM in the assay on RXF 393 renal; 15800 nM in the assay with HCT-116 colon; 19600 nM in the assay on SF-295 CNS; > 60500 nM in the assay on NCI-H23 lung. Besides, the GI50 in the assay with OVCAR-3 ovarian is 1890 nM; in the assay on KM12 colon, > 60500 nM; in the assay on K-562 leukemia, > 56100 nM; in the assay on HCC-2998 colon it was 165 nM. The TGI (in general, the concentration giving total growth inhibition) in the assay with PC-3 prostate was > 67700 nM; in the assay with IGROV1 ovarian, > 100000 nM; with RXF 393 renal it was > 42600 nM; in the assay on HCT-116 colon, 29900 nM; in the assay with SF-295 CNS, 43100 nM; in the assay on NCI-H23 lung it was > 100000 nM. Moreover, the concentration for total growth inhibition (TGI) is > 47800 nM with OVCAR-3 ovarian, > 100000 nM in the assay on KM12 colon, > 100000 nM with K-562 leukemia and 18200 nM with HCC-2998 colon.

For `CCCCCOC(=O)c1c(C)[nH]c(/C=C2\N=C(c3ccc[nH]3)C=C2OC)c1C`, the 50% growth inhibitory concentration (GI50) in the assay with PC-3 prostate was 21.2 nM; in the assay on IGROV1 ovarian, 49.4 nM; with RXF 393 renal it was 66.4 nM; in the assay with HCT-116 colon, 19.3 nM; with SF-295 CNS, 96.6 nM; with NCI-H23 lung, 57 nM. Also, the GI50 in the assay with OVCAR-3 ovarian was 42.3 nM; in the assay on KM12 colon, 30.1 nM; in the assay on K-562 leukemia it was 42.1 nM; with HCC-2998 colon, 28.5 nM. The concentration for total growth inhibition (TGI) is 3270 nM in the assay with PC-3 prostate; 1520 nM with IGROV1 ovarian; 900 nM in the assay on RXF 393 renal; 349 nM in the assay on HCT-116 colon; 544 nM with SF-295 CNS; 1470 nM with NCI-H23 lung. Further, the total growth inhibition concentration (TGI) with OVCAR-3 ovarian was determined as 615 nM; with KM12 colon it was 1540 nM; with K-562 leukemia it was 1250 nM; in the assay on HCC-2998 colon, 1390 nM.

Take `Cc1ccc(NC(=O)c2ccoc2)cc1-c1ccc(C(=O)NCC2CC2)cc1`: the GI50 with PC-3 prostate was > 17000 nM; in the assay with IGROV1 ovarian, > 25000 nM; with RXF 393 renal, > 25000 nM; with HCT-116 colon, > 25000 nM; in the assay on SF-295 CNS, > 14800 nM; in the assay on NCI-H23 lung, > 25000 nM. The GI50 was > 17900 nM in the assay on OVCAR-3 ovarian, > 25000 nM with KM12 colon, > 18600 nM with K-562 leukemia and > 25000 nM with HCC-2998 colon. Moreover, the TGI in the assay with PC-3 prostate, with IGROV1 ovarian, in the assay on RXF 393 renal, with HCT-116 colon, with SF-295 CNS and in the assay on NCI-H23 lung was > 25000 nM in each case. Moreover, the concentration for total growth inhibition (TGI) with OVCAR-3 ovarian, in the assay with KM12 colon, in the assay on K-562 leukemia and with HCC-2998 colon was > 25000 nM throughout.

In the case of `COC1C(OC(=O)/C=C/C=C/C=C/C=C/C(=O)O)CCC2(CO2)C1C1(C)OC1CC=C(C)C` (centres undefined), the TGI was 73100 nM with PC-3 prostate; > 95100 nM with IGROV1 ovarian; > 100000 nM in the assay on HCT-116 colon; > 96800 nM in the assay with SF-295 CNS; > 83700 nM in the assay on NCI-H23 lung; > 80900 nM in the assay on OVCAR-3 ovarian. For the same compound, the TGI with KM12 colon is 29400 nM; in the assay with K-562 leukemia, > 89600 nM; in the assay with HCC-2998 colon it was > 71400 nM. In addition, the GI50 in the assay with RXF 393 renal is 265 nM; in the assay on HCT-116 colon, 120 nM; in the assay with SF-295 CNS, 193 nM; with NCI-H23 lung, 193 nM; in the assay on OVCAR-3 ovarian, 314 nM; in the assay with KM12 colon, 471 nM. In addition, the GI50 in the assay on HCC-2998 colon was 231 nM.

Regarding `CN1CCN(c2ccc3nc(-c4[nH]ncc4Nc4ncnc5[nH]ccc45)[nH]c3c2)CC1`, the GI50 with PC-3 prostate is 222 nM; in the assay on IGROV1 ovarian it was 189 nM; in the assay on RXF 393 renal, 177 nM; in the assay on HCT-116 colon, 66.5 nM; in the assay with SF-295 CNS it was 867 nM; with NCI-H23 lung, 517 nM. For the same compound, the GI50 is 233 nM with OVCAR-3 ovarian, 517 nM in the assay with KM12 colon, 299 nM with K-562 leukemia and 375 nM in the assay on HCC-2998 colon. In addition, the concentration for total growth inhibition (TGI) in the assay with PC-3 prostate is 3540 nM; with IGROV1 ovarian it was 1410 nM; in the assay with RXF 393 renal, 397 nM; in the assay on SF-295 CNS, 3180 nM; with NCI-H23 lung it was 4060 nM; in the assay on OVCAR-3 ovarian, 759 nM. The concentration for total growth inhibition (TGI) in the assay on KM12 colon is 11600 nM; in the assay with K-562 leukemia, > 100000 nM; with HCC-2998 colon, 4520 nM.

On to `CC(=O)Nc1ccc(CC[C@H]2CCC/C=C/[C@@H]3C[C@H](O)C[C@H]3[C@H](O)/C=C/C(=O)O2)cc1`, for which the GI50 with PC-3 prostate was 353 nM; with IGROV1 ovarian it was 88.7 nM; in the assay on RXF 393 renal it was 35.9 nM; in the assay with HCT-116 colon, 184 nM; with SF-295 CNS, 201 nM; in the assay with NCI-H23 lung, 188 nM. The GI50 in the assay with OVCAR-3 ovarian is 217 nM; in the assay with KM12 colon, 98.3 nM; in the assay on K-562 leukemia, 392 nM; in the assay on HCC-2998 colon, 78.1 nM. The concentration for total growth inhibition (TGI) with PC-3 prostate is > 100000 nM; with IGROV1 ovarian, 237 nM; with RXF 393 renal, 150 nM; in the assay with HCT-116 colon, 389 nM; with SF-295 CNS, > 100000 nM; in the assay on NCI-H23 lung it was 759 nM. The TGI with OVCAR-3 ovarian was 533 nM; with KM12 colon, 315 nM; in the assay on K-562 leukemia it was > 100000 nM.

As to `CCCN1CCC(Oc2cc(Nc3nc(Nc4cccc(F)c4C(N)=O)c4cc[nH]c4n3)c(OC)cc2Cl)CC1`, the GI50 was 2550 nM with PC-3 prostate; 3860 nM in the assay with IGROV1 ovarian; 2280 nM in the assay on RXF 393 renal; 2160 nM in the assay on HCT-116 colon; 3810 nM in the assay on SF-295 CNS; 3490 nM in the assay on NCI-H23 lung. In addition, the GI50 in the assay with OVCAR-3 ovarian is 4180 nM; with KM12 colon, 2720 nM; in the assay with K-562 leukemia, 620 nM; in the assay on HCC-2998 colon, 994 nM. The total growth inhibition concentration (TGI) in the assay with PC-3 prostate stood at 6730 nM; in the assay on IGROV1 ovarian, 9220 nM; in the assay with RXF 393 renal, 6030 nM; in the assay on HCT-116 colon, 5500 nM; with SF-295 CNS, 8530 nM; in the assay on NCI-H23 lung it was 8260 nM. In addition, the TGI with OVCAR-3 ovarian was 7990 nM; with KM12 colon it was 6110 nM; with K-562 leukemia it was 1730 nM; in the assay with HCC-2998 colon, 3840 nM.

The values above are taken from PubChem BioAssay (NCI).
